Test results from the CATMoS acute toxicity set (Mansouri et al. 2021).

Assay: GHS categories as the set defines them, by LD50: 1 up to 5, 2 up to 50, 3 up to 300, 4 up to 2000, 5 above 2000 mg/kg
Settings: rat; in vivo; po

Row | SMILES | GHS category
1 | CCCCCCCCCCCCCCCCCC(=O)OCC(COC(=O)CCCCCCCCCCCCCCCCC)OC(=O)CCCCCCCCCCCCCCCCC | 5
2 | CC(=O)OCC(=O)C1(O)C(O)CC2C3CCC4=CC(=O)C=CC4(C)C3=CCC21C (centres undefined) | 5
3 | C1C2CC3CC1CC(C2)C3 | 5
4 | CCO[Si](CCCOCC1CO1)(OCC)OCC (centres undefined) | 5
5 | COc1ccc(Cl)cc1C(=O)NCCc1ccc(S(=O)(=O)NC(=O)NC2CCCCC2)cc1 | 5
6 | NC(N)=Nc1nc(CSCC/N=C/NS(=O)(=O)c2ccc(Br)cc2)cs1 | 5
7 | CCC(=O)O[C@H]1[C@H](O[C@@H]2[C@@H](C)[C@H](O[C@H]3C[C@@](C)(OC)[C@@H](O)[C@H](C)O3)[C@@H](C)C(=O)O[C@H](CC)[C@@](C)(O)[C@H](O)[C@@H](C)C(=O)[C@H](C)C[C@@]2(C)O)O[C@H](C)C[C@@H]1N(C)C | 5
8 | CCOC(=O)CCCCC(=O)OCC | 4
9 | CCCCCCCCCCCCO[PH](=O)OCCCCCCCCCCCC | 5
10 | COC(=O)Nc1nc2ccc(OCc3ccccc3)cc2[nH]1 | 5
11 | CCCCN1CCCC1=O | 4
12 | O=C1c2ccccc2C(=O)N1CCO | 5
13 | COc1ccccc1N1CCN(/C(=N\CCCO)Nc2ccccc2)CC1 | 4
14 | COc1ccc(C[C@](C)(NC(N)=O)C(=O)O)cc1OC | 5
15 | CCCCOC(=O)c1ccccc1N | 5
16 | CC(=O)OCC1=C(C(=O)O)N2C(=O)[C@@H](NC(=O)[C@H](N)c3ccccc3)[C@H]2SC1 | 5
17 | CCCCCCCC/C=C\CCCCCCCC(=O)OC[C@H](O)[C@H]1OC[C@H](OC(=O)CCCCCCC/C=C\CCCCCCCC)[C@H]1OC(=O)CCCCCCC/C=C\CCCCCCCC | 5
18 | CSc1nnc(C(C)(C)C)c(=O)n1/N=C/C(C)C | 5
19 | CC(C)CCCC(C)CCO (centres undefined) | 5
20 | CC1Oc2cc(C(=O)c3ccccc3)ccc2N(C)C1=O (centres undefined) | 5
21 | C[Si](C)(CCCN)N1CCC[Si]1(C)C | 4
22 | CCCC1CCOC(C)S1 (centres undefined) | 5
23 | CN1C(=O)C(C)(C)Oc2cc(C(=O)c3ccccc3)ccc21 | 5
24 | CCCCC(CC)COP(=O)(Oc1ccccc1)Oc1ccccc1 (centres undefined) | 5
25 | O=C(O)C(=O)Nc1cccc(-c2nnn[nH]2)c1 | 5
26 | c1cc2c(c(OCCN3CCCCC3)c1)OCCO2 | 5

Row | SMILES | GHS category
27 | CC(C)CCCCCCCCCCCCCCCO | 5
28 | CCO[Si](CN(CC)CC)(OCC)OCC | 5
29 | CCC1COC(=O)O1 (centres undefined) | 5
30 | C=C[Si](C)(C)O[Si](O[Si](C)(C)C=C)(O[Si](C)(C)C=C)O[Si](C)(C)C=C | 5
31 | CCS(=O)c1c(C#N)nn(-c2c(Cl)cc(C(F)(F)F)cc2Cl)c1N (centres undefined) | 5
32 | O=C(Nc1cc(Cl)c(NC(=O)c2cc3ccccc3c(N=Nc3cc(C(F)(F)F)ccc3Cl)c2O)cc1Cl)c1cc2ccccc2c(N=Nc2cc(C(F)(F)F)ccc2Cl)c1O | 5
33 | O=C(O)CN(CC(=O)O)CC(O)CN(CC(=O)O)CC(=O)O | 5
34 | COC(=O)c1cc(Cl)ccc1OC(N)=O | 5
35 | Nc1nc2cc(Cl)cc(S(=O)(=O)O)c2o1 | 4
36 | Cc1cccc2ncc(C(=O)NC3CCCC3)c(=O)n12 | 3
37 | CNC(=O)Oc1c(C(C)(C)C)cc(C)cc1C(C)(C)C | 5
38 | CC(C)=CCOC1=C(C(=O)Nc2ccccn2)N(C)S(=O)(=O)c2cc(Cl)sc21 | 2
39 | N#Cc1ccc(NC(=O)Oc2ccccc2)cc1 | 5
40 | CS/C(C)=N/O | 4
41 | CNCC(O)CO (centres undefined) | 5
42 | CC12CCC(=O)C=C1CCC1C3CCC4(CCC(=O)O4)C3CCC12C (centres undefined) | 5
43 | COC12CC(COC3=CC(=O)CC3)CN(C)C1Cc1cn(C(C)(C)C)c3cccc2c13 (centres undefined) | 4
44 | CC(C)=CCN(CC=C(C)C)CCC(C#N)(c1cccc2ccccc12)C(C)C (centres undefined) | 4
45 | CCCO[Si](OCCC)(OCCC)OCCC | 5
46 | C=CCN1CCC23c4c5ccc(O)c4OC2C(=O)CCC3(O)C1C5 (centres undefined) | 4
47 | CN1C(=O)COc2cc(C(=O)C=Cc3ccc(O)cc3)ccc21 | 5
48 | CC(CO)CCCC1CCCCC1 (centres undefined) | 5
49 | O=C1NC(=O)c2cccc3cccc1c23 | 5
50 | Cc1cccc(N(C)C(=S)Oc2ccc3ccccc3c2)c1 | 5
51 | CCCc1c(Cc2ccc(-c3ccccc3-c3nn[nH]n3)cc2)c(N2CCCCC2)nc2ncnn12 | 4
52 | COc1ccccc1-c1nc(C)c(C(N)=O)s1 | 5

Row | SMILES | GHS category
53 | C[C@H]1C[C@@H]2[C@H]([C@@H](O)C[C@@]3(C)[C@H]2CC[C@]3(O)C(=O)CO)[C@@]2(C)C=CC(=O)C=C12 | 5
54 | CC(C)=CCSC[C@H](N)C(=O)O | 5
55 | CC(=O)N(C)C(=O)Oc1cccc2c1OCO2 | 4
56 | CC(=CC1C(C)=CCCC1(C)C)C(C)O (centres undefined) | 5
57 | CCN(CCCSc1nnnn1C)C(=O)C1CCCCC1 | 4
58 | COc1ccccc1C=NNC(N)=S | 5
59 | C[N+](C)(CCO)CC(O)C[N+](C)(C)CCO | 4
60 | CC(CCO)CCCC(C)(C)O (centres undefined) | 5
61 | CCOC(=O)C(=O)Nc1cccc(OC)c1C(N)=O | 5
62 | Nc1cc(C(=O)NCC(O)CO)cc(C(=O)NCC(O)CO)c1 (centres undefined) | 5
63 | Nc1c(I)c(C(=O)O)c(I)c(C(=O)O)c1I | 5
64 | CCOc1ccc(OC(=O)c2ccccc2OC(N)=O)cc1 | 5
65 | O=C(O)C1C2C=CC(C2)C1C(=O)O (centres undefined) | 5
66 | O=C1c2ccc(Br)cc2C(=O)C1(Br)c1ccc2ccccc2c1 (centres undefined) | 5
67 | CCOC(=O)CC(=O)N1CCSC1COc1ccccc1OC (centres undefined) | 5
68 | CC(O)CCl (centres undefined) | 3
69 | Cc1cc(C)c(C(=O)P(=O)(C(=O)c2c(C)cc(C)cc2C)c2ccccc2)c(C)c1 | 5
70 | O=C1OCc2c(Cl)cccc21 | 4
71 | COc1c(O)cc2c(c1O)C1OC(CO)C(O)C(O)C1OC2=O (centres undefined) | 5
72 | CNC(=O)C(=NNc1cccc(Cl)c1Cl)C(C)=O | 5
73 | CCOc1ccccc1C(=N)N | 4
74 | CC(O)C(O)C(=O)C(O)C(O)Oc1cccc2c1C(=O)c1c(O)cc(C(=O)O)cc1C2C1c2cc(C(=O)O)cc(O)c2C(=O)c2c(OC(O)C(O)C(=O)C(O)C(C)O)cccc21 (centres undefined) | 5
75 | CCCCCCCCCCCCCCCC(=O)Nc1cc(Cl)c(CC)c(Cl)c1O | 5
76 | CCCCCCCC(O)CCO (centres undefined) | 5
77 | CO/N=C(\C(=O)N[C@@H]1C(=O)N2C(C(=O)OCOC(=O)C(C)(C)C)=C(/C=C\c3scnc3C)CS[C@H]12)c1csc(N)n1 | 5
78 | O=c1n(CCO)c(=O)n(CCO)c(=O)n1CCO | 5

Row | SMILES | GHS category
79 | CCC(=O)OCCCc1ccccc1 | 5
80 | COC1(NC(=O)C2SC(=C(C(N)=O)C(=O)O)S2)C(=O)N2C(C(=O)O)=C(CSc3nnnn3C)CSC21 (centres undefined) | 5
81 | Cn1nnnc1SCC1=C(C(=O)O)N2C(=O)[C@@H](NC(=O)[C@H](O)c3ccccc3)[C@H]2SC1 | 5
82 | CC1C2Cc3ccc(O)cc3C1(C)CCN2CCCC(=O)c1ccc(F)cc1 (centres undefined) | 4
83 | CCOC(=O)[C@H](CCc1ccccc1)N[C@H]1CS[C@H](c2cccs2)CN(CC(=O)O)C1=O | 5
84 | Cc1ncc(COP(=O)(O)O)c(CN)c1O | 5
85 | CCCCC(CC)CNc1ccc2ccccc2c1N=Nc1ccc(N=Nc2ccccc2C)cc1C (centres undefined) | 5
86 | CCCCNc1cc(C(=O)O)cc(S(N)(=O)=O)c1Oc1ccccc1 | 5
87 | N[C@@H](C(=O)N[C@@H]1C(=O)N2C(C(=O)O)=C(Cl)CS[C@H]12)c1ccccc1 | 5
88 | CC(C)c1[nH]c2ccccc2c1C(=O)c1cccnc1 | 5
89 | OC[C@H]1O[C@@H](n2cnc3c(O)ncnc32)[C@H](O)[C@@H]1O | 5
90 | CCC(C)C(NC(=O)C(Cc1cnc[nH]1)NC(=O)C(CCSC)NC(=O)C(CS)NC(=O)C(NC(=O)CNC(=O)CNC(=O)C(CC(N)=O)NC(=O)C(CC(C)C)NC(=O)C(CS)NC(=O)C(Cc1ccc(O)cc1)NC(=O)CNC(=O)C(CC(=O)O)NC(=O)C(Cc1ccc(O)cc1)NC(=O)C(CO)NC(=O)C(CO)NC(=O)C1CCCN1C(=O)C(CS)NC(=O)CNC(=O)C1CCCN1C(=O)C(Cc1ccc(O)cc1)NC(=O)C(CO)NC(=O)C(N)CC(N)=O)C(C)C)C(=O)NC(CCC(=O)O)C(=O)NC(CO)C(=O)NC(CC(C)C)C(=O)NC(CC(=O)O)C(=O)NC(CO)C(=O)NC(Cc1ccc(O)cc1)C(=O)NC(C(=O)NC(CS)C(=O)NC(CC(N)=O)C(=O)NC(CS)C(=O)NC(C(=O)NC(C(=O)NCC(=O)NC(Cc1ccc(O)cc1)C(=O)NC(CO)C(=O)NCC(=O)NC(CC(=O)O)C(=O)NC(CCCNC(=N)N)C(=O)NC(CS)C(=O)NC(CCC(N)=O)C(=O)NC(C(=O)NC(CCCNC(=N)N)C(=O)NC(CC(=O)O)C(=O)NC(CC(C)C)C(=O)NC(CCCNC(=N)N)C(=O)NC(Cc1c[nH]c2ccccc12)C(=O)NC(Cc1c[nH]c2ccccc12)C(=O)NC(CCC(=O)O)C(=O)NC(CC(C)C)C(=O)NC(CCCNC(=N)N)C(=O)O)C(C)O)C(C)CC)C(C)C)C(C)O (centres undefined) | 5
91 | COc1ccc(N=NC(C(C)=O)C(=O)Nc2ccccc2OC)c([N+](=O)[O-])c1 (centres undefined) | 5
92 | O=C1c2ccc(Oc3ccc(Cl)cc3)cc2C(=O)N1Cc1cccnc1 | 5
93 | CCCCCCCCCCCCCOC(=O)c1ccccc1C(=O)OCCCCCCCCCCCCC | 5
94 | C[N+](C)(C)NCCC(=O)[O-] | 5
95 | CCCC(=O)NC(C)C(=O)O (centres undefined) | 5
96 | CNC(=O)c1cc(C(O)CNC(C)(C)CCN2C(=O)OC(C)(C)c3ccccc32)ccc1O (centres undefined) | 4
97 | CCCC(=O)C(C)=O | 5
98 | CCOC(C)(C)CC | 5
99 | CCCCCCCC1CCCC(=O)O1 (centres undefined) | 5
100 | Cc1cc(C(=O)Nc2cccc(C(F)(F)F)c2)n[nH]1 | 5
101 | C[C@@H]1CN([C@H]2CC[C@](C#N)(c3ccc(F)cc3)CC2)CC[C@]1(C(=O)O)c1ccccc1 | 5
102 | CC(C)(C)[C@H](NC(=O)OCc1ccccc1)C(=O)O | 4
103 | CC(C)(C=O)CN1CCOCC1 | 5
104 | CNC(=O)C(=NNc1ccccc1)C(C)=O | 5
